According to patent US4940705A, “N-substituted derivatives of 1-desoxynojirimycin and 1-desoxymannonojirimycin and pharmaceutical use” (Bayer Aktiengesellschaft, priority 1987, dated 1990):
≈ marks a conversion by molar mass, not a printed value.

Tests used:
Visna virus = Visna virus test: inhibition of virus-induced cytopathic effect / virus multiplication in infected cell cultures; format: cell-based; details: Visna-maedi virus, 168 h, sheep fibroblast cells, 7 days at 37° C., Table 1, read-out: 2 MIC (minimum concentration at which an inhibition of virus multiplication was still observed)
Protocol: In cell cultures which are infected with Visna virus, pronounced virus-induced, cytopathic effects appear 5 to 10 days after infection. By treatment of the infected cell cultures with the compounds according to the invention, the appearance of these cytopathic effects could be prevented.
(§1) The Visna virus test was carried out by the method of O. Narayan et al., Journal of Infectious Diseases 135, 5, 1977, 800-806. For this, the compounds according to the invention were diluted to non-cytotoxic concentrations in culture medium in 96-well microtiter plates. Subsequently, sheep fibroblast cells (5×10^4 cells per well) in production medium were added to each well. Each well then contained 50 μl of a Visna virus solution having a titre of about 2.5×10^4TCID50 (TCID=tissue culture infectious dose). This virus dose corresponds to an MOI (multiplicity of infection) of about 0.05.
The infected and treated cells and the controlled cells were incubated for 7 days at 37° C. and 5% CO2.
On appearance of the virus-induced cytopathogenic effect in the untreated virus control, the cultures were fixed using formalin and subsequently stained with a Giemsa solution.
(§2) Herein, MCC denotes cytotoxicity and MIC denotes the minimum concentration at which an inhibition of virus multiplication was still observed.

Cytotoxicity (MCC) = format: cell-based; details: sheep, sheep fibroblast cells; MCC denotes cytotoxicity; Table 1
Protocol: as §1, §2

Row | Compound | MIC (Visna virus) [µg/mL] | MCC (Cytotoxicity (MCC)) [µg/mL]
1 | O=C(CCN1C[C@H](O)[C@@H](O)[C@H](O)[C@H]1CO)Nc1ccc(OCCO)cc1 [Example 40, N-[4-(2-Hydroxyethoxy)phenyl]-3-(1,5-didesoxy-1,5-imino-D-glucit-N-yl)propionamide] | 15 (≈ 40.5 µM) | > 1000
2 | O=C(CCN1C[C@H](O)[C@@H](O)[C@H](O)[C@H]1CO)N1CCN(c2ccccc2[N+](=O)[O-])CC1 [Example 94, 3-(1,5-Didesoxy-1,5-imino-D-glucit-N-yl)propionyl-1-(4-2-nitrophenyl)piperazine] | 500 (≈ 1180 µM) | > 1000
3 | O=C(CCN1C[C@@H](O)[C@@H](O)[C@H](O)[C@H]1CO)Nc1ccc(F)c(F)c1 [Example 60, N-(3,4-Difluorophenyl)-3-(1,5-didesoxy-1,5-imino-D-mannit-n-yl)propionamide] | 500 (≈ 1440 µM) | > 1000
4 | O=C(CCN1C[C@@H](O)[C@@H](O)[C@H](O)[C@H]1CO)N1CCN(c2ccc(F)cc2)CC1 [Example 82, 3-(1,5-Didesoxy-1,5-imino-D-mannit-N-yl)-propionyl-1-(4-p-fluorophenyl)piperazine] | 500 (≈ 1260 µM) | > 1000
5 | COc1ccc(NC(=O)CCN2C[C@H](O)[C@@H](O)[C@H](O)[C@H]2CO)cc1OC [Example 24, N-(3,4-Dimethoxyphenyl)-3-(1,5-didesoxy-1,5-imino-D-glucit-N-yl)propionamide] | 125 (≈ 337 µM) | > 1000
6 | CCN(CC)CCOc1ccc(NC(=O)CCN2C[C@@H](O)[C@@H](O)[C@H](O)[C@H]2CO)cc1 [Example 50, N-[4-(2-N,N-Diethylaminoethoxy)phenyl]-3-(1,5-didesoxy-1,5-imino-D-mannit-N-yl)propionamide] | 250 (≈ 588 µM) | 1000
7 | CSc1ccccc1NC(=O)CCN1C[C@H](O)[C@@H](O)[C@H](O)[C@H]1CO [Example 32, N-(2-Methylthiophenyl)-3-(1,5-didesoxy-1,5-imino-D-glucit-N-yl)propionamide] | 250 (≈ 701 µM) | > 1000
8 | CCCCNC(=O)CCN1C[C@H](O)[C@@H](O)[C@H](O)[C@H]1CO [Example 104, N-Butyl-3-(1,5-didesoxy-1,5-imino-D-glucit-N-yl)propionamide] | 250 (≈ 861 µM) | > 1000
9 | CC(C)c1ccc(NC(=O)CCN2C[C@@H](O)[C@@H](O)[C@H](O)[C@H]2CO)cc1 [Example 54, N-(4-Isopropylphenyl)-3-(1,5-didesoxy-1,5-imino-D-mannit-N-yl)propionamide] | 250 (≈ 709 µM) | 1000
10 | O=C(CCN1C[C@H](O)[C@@H](O)[C@H](O)[C@H]1CO)NCC(=O)c1ccccc1 [Example 90] | 250 (≈ 709 µM) | 1000
11 | O=C(CCN1C[C@H](O)[C@@H](O)[C@H](O)[C@H]1CO)N1CCc2ccccc21 [Example 17, 1-[3-(1,5-Didesoxy-1,5-imino-D-glucit-N-yl)propionyl]-2,3-dihydroindole] | 125 (≈ 372 µM) | 1000
12 | C[C@@H](NC(=O)CCN1C[C@H](O)[C@@H](O)[C@H](O)[C@H]1CO)c1ccccc1 [Example 103] | 125 (≈ 369 µM) | > 1000
13 | O=C(CCN1C[C@@H](O)[C@@H](O)[C@H](O)[C@H]1CO)Nc1ccc2c(c1)OCO2 [Example 72, N-(3,4-Methylenedioxyphenyl)-3-(1,5-didesoxy-1,5-imino-N-yl)propionamide] | 500 (≈ 1410 µM) | > 1000
14 | CC(C)c1ccccc1NC(=O)CCN1C[C@@H](O)[C@@H](O)[C@H](O)[C@H]1CO [Example 55, N-(2-Isopropylphenyl)-3-(1,5-didesoxy-1,5-imino-D-mannit-N-yl)propionamide] | 250 (≈ 709 µM) | 1000
15 | O=C(CCN1C[C@@H](O)[C@@H](O)[C@H](O)[C@H]1CO)Nc1ccc(OC(F)(F)C(F)Cl)cc1 (stereo partly drawn) [Example 53, N-[4-(2-Chloro-1,1,2-trifluoroethoxy)phenyl]-3-(1,5-didesoxy-1,5-imino-D-mannit-N-yl)propionamide] | 250 (≈ 565 µM) | 500
16 | COC(=O)c1ccc(NC(=O)CCN2C[C@@H](O)[C@@H](O)[C@H](O)[C@H]2CO)cc1 [Example 43, N-(4-Methoxycarbonylphenyl)-3-(1,5-didesoxy-1,5-imino-D-mannit-N-yl)propionamide] | 500 (≈ 1360 µM) | > 1000
17 | CCOc1ccc(NC(=O)CCN2C[C@H](O)[C@@H](O)[C@H](O)[C@H]2CO)cc1 [Example 35, N-(4-Ethoxyphenyl)-3-(1,5-didesoxy-1,5-imino-D-glucit-N-yl)propionamide] | 15 (≈ 42.3 µM) | 250

Row | Compound | MIC (Visna virus) [µg/mL] | MCC (Cytotoxicity (MCC)) [µg/mL]
18 | C=CCOc1ccc(NC(=O)CCN2C[C@H](O)[C@@H](O)[C@H](O)[C@H]2CO)cc1 [Example 10, N-(4-Allyloxyphenyl)-3-(1,5-didesoxy-1,5-imino-D-glucit-N-yl)propionamide] | 30 (≈ 81.9 µM) | > 1000
19 | O=C(CCN1C[C@H](O)[C@@H](O)[C@H](O)[C@H]1CO)N1CCN(c2ccccc2F)CC1 [Example 92, 3-(1,5-Didesoxy-1,5-imino-D-glucit-N-yl)propionyl-1-(4-2-fluorophenyl)piperazine] | 250 (≈ 629 µM) | > 1000
20 | O=C(CCN1C[C@H](O)[C@@H](O)[C@H](O)[C@H]1CO)Nc1ccc(F)c(F)c1 [Example 19, N-(3,4-Difluorophenyl)-3-(1,5-didesoxy-1,5-imino-D-glucit-N-yl)propionamide] | 125 (≈ 361 µM) | > 1000
21 | Cc1cccc(N2CCN(C(=O)CCN3C[C@H](O)[C@@H](O)[C@H](O)[C@H]3CO)CC2)c1 [Example 93, 3-(1,5-Didesoxy-1,5-imino-D-glucit-N-yl)propionyl-1-(3-methylphenyl)piperazine] | 500 (≈ 1270 µM) | > 1000
22 | O=C(CCN1C[C@H](O)[C@@H](O)[C@H](O)[C@H]1CO)Nc1ccc2c(c1)OCCO2 [Example 29, N-(3,4-Ethylenedioxyphenyl)-3-(1,5-didesoxy-1,5-imino-D-glucit-N-yl)propionamide] | 125 (≈ 339 µM) | > 1000
23 | O=C(CCN1C[C@H](O)[C@@H](O)[C@H](O)[C@H]1CO)Nc1ccc(C2CCCCC2)cc1 [Example 28, N-(4-Cyclohexylphenyl)-3-(1,5-didesoxy-1,5-imino-D-glucit-N-yl)propionamide] | 500 (≈ 1270 µM) | > 1000
24 | O=C(CCN1C[C@H](O)[C@@H](O)[C@H](O)[C@H]1CO)N1CCN(c2ncccn2)CC1 [Example 99, 3-(1,5-Didesoxy-1,5-imino-D-glucit-N-yl)-propionyl-1-(4-[2-pyrimidyl])piperazine] | 125 (≈ 328 µM) | > 1000
25 | O=C(CCN1C[C@H](O)[C@@H](O)[C@H](O)[C@H]1CO)Nc1ccc(OC(F)(F)C(F)Cl)cc1 (stereo partly drawn) [Example 12, N-[4-(2-Chloro-1,1,2-trifluoroethoxy)phenyl]-3-(1,5-didesoxy-1,5-imino-D-glucit-N-yl)propionamide] | 250 (≈ 565 µM) | 1000
26 | O=C(CCN1C[C@H](O)[C@@H](O)[C@H](O)[C@H]1CO)N1CCSCC1 [Example 100, 3-(1,5-Didesoxy-1,5-imino-D-glucit-N-yl)propionyl-1-thiomorpholide] | 500 (≈ 1560 µM) | > 1000
27 | C=CCOc1ccc(NC(=O)CCN2C[C@@H](O)[C@@H](O)[C@H](O)[C@H]2CO)cc1 [Example 51, N-(4-Allyloxyphenyl)-3-(1,5-didesoxy-1,5-imino-D-mannit-N-yl)propionamide] | 250 (≈ 682 µM) | 1000
28 | COc1cc(NC(=O)CCN2C[C@H](O)[C@@H](O)[C@H](O)[C@H]2CO)cc(OC)c1OC [Example 23, N-(3,4,5-Trimethoxyphenyl)-3-(1,5-didesoxy-1,5-imino-D-glucit-N-yl)propionamide] | 75 (≈ 187 µM) | 150
29 | O=C(CCN1C[C@H](O)[C@@H](O)[C@H](O)[C@H]1CO)Nc1ccc(F)cc1F [Example 18, N-(2,4-Difluorophenyl)-3-(1,5-didesoxy-1,5-imino-D-glucit-N-yl)propionamide] | 500 (≈ 1440 µM) | > 1000
30 | O=C(O)CCCN1C[C@H](O)[C@@H](O)[C@H](O)[C@H]1CO [Example 107, 4-(1,5-Didesoxy-1,5-imino-D-glucit-N-yl)butanoic acid] | 500 (≈ 2010 µM) | > 1000
31 | Cc1ccccc1N1CCN(C(=O)CCN2C[C@H](O)[C@@H](O)[C@H](O)[C@H]2CO)CC1 [Example 96, 3-(1,5-Didesoxy-1,5-imino-D-glucit-N-yl)propionyl-1-(4-2-methylphenyl)piperazine] | 500 (≈ 1270 µM) | > 1000
32 | O=C(CCN1C[C@H](O)[C@@H](O)[C@H](O)[C@H]1CO)Nc1ccc2c(c1)OCO2 [Example 31, N-(3,4-Methylenedioxyphenyl)-3-(1,5-didesoxy-1,5-imino-D-glucit-N-yl)propionamide] | 125 (≈ 353 µM) | > 1000
33 | CC(C)(C)c1ccc(NC(=O)CCN2C[C@H](O)[C@@H](O)[C@H](O)[C@H]2CO)cc1 [Example 7, N-(4-Tert.-butylphenyl)-3-(1,5-didesoxy-1,5-imino-D-glucit-N-yl)propionamid] | 500 (≈ 1360 µM) | > 1000
34 | N#Cc1cccc(NC(=O)CCN2C[C@@H](O)[C@@H](O)[C@H](O)[C@H]2CO)c1 [Example 68, N-(3-Cyanophenyl)-3-(1,5-didesoxy-1,5-imino-D-mannit-N-yl)propionamide] | 250 (≈ 745 µM) | 500
